Test [1] concerns the target T1, SNAP-FLAG/α-FLAG antibody complex (Homo sapiens, UniProt P16455, A127T/A154D/C150Q/C62A/E30R/G131K/G132T/G153L/K125A/K32I/L33F/M134L/N157G/Q115S/Q116H/R128A/R135S/S151G/S152D/S159E).
T1 construct: host or cells: clarified lysate of HEK293T cells transiently or stably expressing SnapFlag
T1 sequence (P16455 1-182 E30R/K32I/L33F/C62A/Q115S/Q116H/K125A/A127T/R128A/G131K/G132T/M134L/R135S/C150Q/S151G/S152D/G153L/A154D/N157G/S159E limits assumed): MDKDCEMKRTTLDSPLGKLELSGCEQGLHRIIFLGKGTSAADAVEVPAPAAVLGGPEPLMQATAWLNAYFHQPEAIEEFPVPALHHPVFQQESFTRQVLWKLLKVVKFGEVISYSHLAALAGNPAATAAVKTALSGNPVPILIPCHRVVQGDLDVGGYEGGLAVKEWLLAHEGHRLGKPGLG
The test is described as follows: Proximity-labeling assay in cell lysate (anti-biotin / anti-mouse Western blot). The class given is biochemical. The conditions noted are these: 500 nM probe. The method, then: Proximity-labeling assays: Clarified cell lysate from HEK293T cells either transiently (see FIG. 4B) or stably (see FIG. 4C) expressing SNAP-Tag (NEB #N9183S; New England Biolabs, Ipswich, Mass., United States of America) or SnapFlag was normalized to 1 mg/mL and 250 μL aliquots incubated in a microcentrifuge tube with either 500 nM of PP1. PP2, or DMSO for 1 hour at 37° C. Washed anti-FLAG M2 affinity gel, 40 μL of a 50% slurry, was transferred to each reaction in 750 μL of DPBS and the resultant suspension left to rotate overnight at 4° C. (Sigma #A2220; Sigma-Aldrich, St. Louis, Mo., United States of America). Samples were then spun down at 4000×g, supernatant aspirated, and the resin washed with 1M urea in DPBS (1 mL×8) followed by DPBS (1 mL). After being resuspended in 100 μL of DPBS, the samples were placed on ice where they were irradiated with 365 nm light for 10 minutes (SPECTROLINKER™ XL-1500a UV crosslinker, Spectronics Corporation, Westbury, N.Y., United States of America). Once irradiated, the beads were washed with 100 mM pH 3.5 glycine buffer (100 μL×2) and DPBS (1 mL). To elute the remaining SNAP-FLAG and resin-bound FLAG-antibody the beads were boiled for 5 minutes at 95° C. in 20 μL 4×-loading buffer containing 8% SDS and 400 mM DTT. After which, 60 μL of DPBS was added and the suspension boiled at 95° C. for an additional 5 minutes. The samples were then run on SDS-PAGE gel and transferred to nitrocellulose where they were stained with anti-mouse IR dye (Li-cor #926-68072; Li-cor Biosciences, Lincoln, Nebr., United States of America) and streptavidin IR dye (Li-cor #926-32230; Li-cor Biosciences, Lincoln, Nebr., United States of America). Bands corresponding to biotinylated proteins and the FLAG antibody were visualized using an Odyssey infrared imager (Li-cor Biosciences, Lincoln, Nebr., United States of America).
To study if proximal protein interactors could be labeled in response to the dual photoactivation of PP1 in vitro, the interaction between SNAP-FLAG protein and an α-FLAG monoclonal antibody (mAb) was examined in cell lysate. In this assay, proximal biotinylation of both heavy and light chains of the antibody was expected, as well as self-labeling of the SNAP-FLAG protein, under conditions where the protein complex is formed and the PP1 probe is photoactivated. To test this hypothesis in the presence and absence of the protein-protein complex, SNAP protein that contained or lacked the FLAG epitope was treated with PP1 probe, followed by incubation with α-FLAG mAb, bead-based pulldown of the complexes, and subsequent photoactivation. […] The requirement for photoactivation of PP1, as well as a related probe PP2 (see FIG. 6) was tested by forming the SNAP-FLAG/α-FLAG complexes, and then comparing protein biotinylation with or without irradiation.
To study if proximal protein interactors could be labeled in response to the dual photoactivation of AC1 (see FIG. 12A) in vitro, the interaction between SNAP-FLAG protein and an α-FLAG monoclonal antibody (mAb) was examined in cell lysate. Briefly, 250 μL aliquots of cell lysate (HEK293T, SNAP-Flag) was incubated in a microcentrifuge tube with either 500 nM of photoprobe, or DMSO for 1 hour at 37° C. Washed anti-FLAG M2 affinity gel, 40 μL of a 50% slurry, was transferred to each reaction in 750 μL of DPBS and the resultant suspension left to rotate overnight at 4° C. (Sigma #A2220; Sigma-Aldrich, St. Louis, Mo., United States of America). Samples were then spun down at 4000×g, supernatant aspirated, and the resin washed with 1M urea in DPBS (1 mL×8) followed by DPBS (1 mL). After being resuspended in 250 μL of DPBS, the +UV samples were placed on ice where they were irradiated with 365 nm light for 10 minutes (SPECTROLINKER™ XL-1500a UV crosslinker, Spectronics Corporation, Westbury, N.Y., United States of America). Once irradiated, the beads were washed with 1 M Urea (1 mL×2) and DPBS (1 mL×2). […]

The target of test [2] is T2, recombinant SNAP-Tag protein (Homo sapiens, UniProt P16455, A127T/A154D/C150Q/C62A/E30R/G131K/G132T/G153L/K125A/K32I/L33F/M134L/N157G/Q115S/Q116H/R128A/R135S/S151G/S152D/S159E).
T2 construct: His6 (N)
T2 sequence (P16455 1-182 E30R/K32I/L33F/C62A/Q115S/Q116H/K125A/A127T/R128A/G131K/G132T/M134L/R135S/C150Q/S151G/S152D/G153L/A154D/N157G/S159E): T1 sequence (P16455 1-182 E30R/K32I/L33F/C62A/Q115S/Q116H/K125A/A127T/R128A/G131K/G132T/M134L/R135S/C150Q/S151G/S152D/G153L/A154D/N157G/S159E limits assumed)
The test is described as follows: In vitro photocleavage assay (in-gel fluorescence). It counts as biochemical. The conditions noted are these: recombinant SNAP-Tag labeled with probe, 0-10 minutes irradiation. The procedure:
In vitro photocleavage assay: Recombinant purified His6-SNAP-Tag (20 μg) was incubated in 200 μL DPBS containing 5 μM PP1 for 1 hour at 37° C. Afterward, the reaction was divided into six 30 μL aliquots, placed on ice, and irradiated with 365 nm light using a SPECTROLINKER™ XL-1500a UV crosslinker (Spectroline, Spectronics, Corporation, Westbury, N.Y., United States of America). Samples were successively removed from irradiation after 0, 0.5, 1, 2.5, 5, 10 minutes of irradiation, diluted with loading buffer, and run on SDS-PAGE gel. Photocleavage was judged by in-gel fluorescence visualized using a ChemiDoc imaging system (Bio-Rad Laboratories, Hercules, Calif., United States of America) scanning for fluorescein.
A first generation P3 chemical proteomic method was designed to facilitate several activities, including: 1) specific probe labeling of POIs in live cells; 2) spatial and temporal control of probe photoactivation and proximal labeling; 3) subsequent enrichment and identification of labeled proteins after cell lysis. […] The BnG targeting element is connected to dual photoreactive elements, a central substituted nitroveratryl carbamate, and a tethered diazirine, which upon irradiation with 365 nm light will simultaneously trigger cleavage and diffusion of the probe away from the SNAP-Tag-POI, as well as unmasking of a highly reactive carbene, respectively. […]

Consider `COc1cc(C(C)OC(=O)NCCCCC(NC(=O)CCC2(C)N=N2)C(=O)NCCNC(=O)CCCCC2SCC3NC(=O)NC32)c([N+](=O)[O-])cc1OCCCC(=O)NCCOCCOC(=O)NCc1ccc(COc2nc(N)nc3[nH]cnc23)cc1` (stereo not drawn) [PP2], for which the “Proximal labeling of heavy and light chains upon irradiation” value in test [1] (365 nm light 10 minutes (FIG. 4C, FIG. 12B)) was “a discrete biotinylated band was formed on both heavy and light chains”. Further, the “Proximal labeling of heavy/light chain without irradiation” value in test [1] (not exposed to 365 nm light (FIG. 4C)) is recorded as “No proximal labeling”.

Turning to `COc1cc(C(C)OC(=O)NCCNC(=S)Nc2ccc3c(c2)C2(OC3=O)c3ccc(O)cc3Oc3cc(O)ccc32)c([N+](=O)[O-])cc1OCCCC(=O)NCc1ccc(COc2nc(N)nc3[nH]cnc23)cc1` (stereo not drawn) [PF-BnG], the “Fluorescence of labeled protein after irradiation at 365 nm (photocleavage)” value in test [2] is reported as “complete loss of fluorescence within minutes”.

The values above are taken from patent US20230137943A1, “PHOTOPROXIMITY PROFILING OF PROTEIN-PROTEIN INTERACTIONS IN CELLS” (The University of Chicago, priority 2019, published 2023).
